In patent US4549023A, “3-Aminoindazole derivatives” (priority 1980, dated 1985):
Read-outs that look alike come from different tables or passages of the source.

Experiments:
[1] = tested on: carrageenin edema in rat's paw; experiment: Carrageenin Edema Test in Rat's Paw (anti-inflammatory activity); assay type: in vivo, Female Wistar rats; settings: for inhibition in vivo at 100 mg/kg: Rattus norvegicus, hydrochloric acid salts; for Inhibition values compared with comparative compounds: Table 1, 100 mg/kg
Experimental: A standard method of Carrageenin Edema Test in Rat's Paw described in C. A. Winter et al., Proc. Soc. Exp. Biol. Med., 111, 544 (1962) was employed.
[…] One hour later, the pad of a hind paw of the rat was injected with 0.1 ml of 1% aqueous carrageenin solution. The volume of the paw was measured both before the injection of carrageenin and three hours after the injection.
The edema inhibition percentage of the test compound was calculated from the ratio of the increase in the volume of the affected paw of the test animals to the increase in the volume of the affected paw of the controls.
The anti-inflammatory activity of the 3-aminoindazole derivative hydrochloric acid salts of this invention was measured.
The anti-inflammatory activity of the 3-aminoindazole derivative hydrochloric acid salts obtained by Examples 1-49 of this invention was measured by the standard method of carrageenin edema test. In these tests, the amount of the administration of the salts was 100 mg/kg. The results are shown in Table 17 (Inhibition (%) was measured three hours after the injection).

[2] = tested on: acetic acid-induced writhing in mice; experiment: Acetic Acid-Writhing Test (analgesic activity); assay type: in vivo, Male ddy-strain mice; settings: 100 mg/kg, oral, hydrochloric acid salts
Experimental: Acetic acid-writhing test was carried out according to Koster et al., Fed. Proc., 18, 412 (1959). […] Thirty minutes later, the mice were intraperitoneally injected with 0.1 ml/10 g of 0.7% acetic acid physiological salt solution as a stimulant. Ten minutes after the stimulant injection, writhing frequency as pain response was observed and recorded over 10 minutes.
The inhibition percentage of the test compound was represented as the ratio of the inhibition of the writhing frequency.
Analgesic activity of 3-aminoindazole derivative hydrochloric acid salts was measured by acetic acid-writhing test.

[3] = tested on: carrageenin-inflamed hind paw of the rat (pressure pain); experiment: Randall-Selitto Test (analgesic activity); assay type: in vivo, Female wister rats; settings: for Analgesic Coefficient, Table 18: 100 mg/kg, hydrochloric acid salts; for Analgesic Coefficient, Table 18 / Analgesic coefficient: water 0.8; for Analgesic coefficient: Randall-Selitto, oral, 50 mg/kg per method; for Analgesic activity by the Randall-Selitto test: rat, in vivo
Experimental: The Randall-Selitto analgesic activity test was carried out according to the general method described in J. O. Randall & J. J. Selitto, Arch. Int. Pharmacodyn, 111, 409 (1957). Female wister rats weighing 120-150 g were orally administered 50 mg/kg of the test compound as an aqueous solution. Thirty minutes later, the pad of a hind paw of the rat was injected with 0.1 ml of 1% aqueous carrageenin solution. Pressure was applied to the paw where edema was formed by Balance-type Pressure Device (Ugo Basile Company; Italy) 1, 2, 3 and 4 hours after the injection. The weight when the test animals began to struggle with pain was measured. The analgesic activity is represented by an analgesic coefficient which is obtained by dividing the average weight measured 1.5, 2.5, 3.5 and 4.5 hours after the administration by the applied weight prior to the administration.
The analgesic activity of the 3-aminoindazole derivative hydrochloric acid salts obtained by Examples 2, 6, 10, 18, 22 and 28 of this invention was measured by the standard method of Randall-Selitto test. In these tests, the amount of the administration of the salts was 100 mg/kg.

[4] = Acute toxicity (LD50), intravenous injection; settings: mouse, in vivo, male ddY-strain mice, read-out: LD50, Table 19
Experimental: Acute toxicity was measured by an ordinary method described in Finney DJ Probit Analysis Cambridge University Press 48, (1952). Ddy mice weighing about 18 g on average, each group consisting of 10 animals, were […] injected with the physiological salt solution containing the test compound. The amount of the test compound administered was varied in 5-8 groups. Three days after the administration, dead animals were counted in each group. The amount of the test compound killing half the number of the animals (LD50) was calculated from the results.
The acute toxicity of the 3-aminoindazole derivatives and their hydrochloric acid salts obtained by Examples 1-49 of this invention was measured by giving male ddY-strain mice an intravenous injection.

gastric ulcer in rats = experiment: Anti-Ulcer Test: occurrence of gastric ulcer by test compound alone; assay type: in vivo, Male donryu rats
Experimental: Ulcer inhibition of 3-(3-diethylaminopropylamino)indazole (10) and 1-(3-piperidinopropyl)-3-aminoindazole (18), typical and preferred compounds of this invention, was measured.

[5] = tested on: gastric ulcer caused by indomethacin; settings: for Ulcer index: rat, in vivo
Experimental: The test compound was suspended in 1% HCO-60 (trade name for polyoxyethylene hydrogenated castor oil; a product of Nikko Chemical Co., Ltd., Japan) at the concentration of 10 mg/ml. Male donryu rats weighing 150-160 g were orally administered 100 mg/kg of the test compound. The occurrence of gastric ulcer was examined 24 hours after the administration.
It is well known that the single use of acidic non-steroidal anti-inflammatory drugs causes a side effect in digestive tracts such as gastric ulcer.

primary inflammation = settings: Silvest et al., Arzneim-Forsch, 16, 59 (1966); cited from earlier work
[6] = po, 3 h, 100 mg/kg, measured three hours after the injection, read-out: Inhibition (carrageenin edema), Table 17
[7] = 100 mg/kg, oral, 3 h after carrageenin, read-out: Inhibition (carrageenin edema), Table 1
[8] = 100 mg/kg singly administered at one time, oral
[9] = 100 mg/kg compound together with 10 mg/kg of indomethacin
[10] = 100 mg/kg compound together with 20 mg/kg of indomethacin

Compound | inhibition in vivo at 100 mg/kg [1, 6] [%] | inhibition in vivo at 100 mg/kg [1, 7] [%] | Inhibition values compared with comparative compounds [1] | Inhibition (acetic acid-writhing), Table 3 [2] [%] | Analgesic Coefficient, Table 18 [3] | LD50 at 72 h [4] [mg/kg] | also measured
CC1CCCCN1CCCNc1n[nH]c2ccccc12 (stereo not shown) [Compound (6), 3-{3-(2-methylpiperidino)propylamino}indazole] | 67 | 67 | higher than that of the compound C-1 | 49 | 1.11 | 91 | Inhibition (carrageenin edema), Table 2 ([1]; 25 mg/kg, oral): 40%; Inhibition (carrageenin edema), Table 2 ([1]; 50 mg/kg, oral): 53%; Inhibition (carrageenin edema), Table 2 ([1]; 100 mg/kg, oral): 67%; Analgesic coefficient [3]: 1.11; Analgesic activity by the Randall-Selitto test [3]: potent analgesic activity
Nc1nn(CCCN2CCCCC2)c2ccccc12 [Compound (18), 1-(3-piperidinopropyl)-3-aminoindazole] | 54 | 54 | higher than those of the compounds C-2 and C-3 | 43 | 1.38 | 102 | Gastric ulcer occurrence (gastric ulcer in rats; [8]): Gastric ulcer did not occur; Gastric ulcer occurrence (gastric ulcer in rats; administered for 5 days): gastric ulcer did not occur; Occurrence frequency in combination [5, 9]: not changed; Ulcer index in combination [5, 9]: 2.5 mm
Nc1nn(-c2ccccc2)c2ccccc12 [Compound C-7, 1-phenyl-3-aminoindazole, reference compound] | – | – | – | 17 | – | – | –
CC1CCCCN1CCCn1nc(N)c2ccccc21 (stereo not shown) [Compound (22), 1-{3-(2-methylpiperidino)propyl}-3-aminoindazole] | 51 | 51 | higher than those of the compounds C-2 and C-3 | 31 | 1.05 | 102 | Inhibition (carrageenin edema), Table 2 ([1]; 25 mg/kg, oral): 29%; Inhibition (carrageenin edema), Table 2 ([1]; 50 mg/kg, oral): 33%; Inhibition (carrageenin edema), Table 2 ([1]; 100 mg/kg, oral): 51%; Analgesic coefficient [3]: 1.05; Analgesic activity by the Randall-Selitto test [3]: potent analgesic activity
CN(C)CCn1nc(N)c2ccccc21 [Compound (28), 1-(2-dimethylaminoethyl)-3-aminoindazole] | 44 | 44 | higher than those of the compounds C-2 and C-3 | – | 0.96 | 343 | –
CN(C)CCCNc1nn(-c2ccccc2)c2ccccc12 [Compound C-6, 1-phenyl-3-(3-dimethylaminopropylamino)indazole, reference compound] | – | – | – | 0 | – | – | –
c1ccc2c(NCCCN3CCCCC3)n[nH]c2c1 [Compound (2), 3-(3-piperidinopropylamino)indazole] | 55 | 55 | higher than that of the compound C-1 | 53 | 0.98 | 101 | –
COc1ccc2c(c1)c(CC(=O)O)c(C)n2C(=O)c1ccc(Cl)cc1 [indomethacin, reference compound] | – | – | – | – | – | – | Ulcer index ([5]; 10 mg/kg): 10.2 mm; Ulcer index ([5]; 20 mg/kg): 34.3 mm
CCN(CC)CCCNc1n[nH]c2ccccc12 [Compound (10), 3-(3-diethylaminopropylamino)indazole] | 66 | 66 | higher than that of the compound C-1 | – | 1.31 | 233 | Gastric ulcer occurrence (gastric ulcer in rats; [8]): Gastric ulcer did not occur; Occurrence frequency in combination [5, 10]: not changed; Ulcer index in combination [5, 10]: 14.9 mm
CC(CCn1nc(N)c2ccccc21)N1CCCCC1 (stereo not shown) [Compound (29), 1-(3-piperidinobutyl)-3-aminoindazole] | 46 | – | – | – | – | 104 | –
c1ccc2c(NCCCN3CCCC3)n[nH]c2c1 [Compound (4), 3-(3-pyrrolidinopropylamino)indazole] | 30 | 30 | higher than that of the compound C-1 | – | – | 97 | –
c1ccc2c(c1)c(NCCCN1CCCCC1)nn2CCCN1CCCCC1 [Compound (39), 1-(3-piperidinopropyl)-3-(3-piperidinopropylamino)indazole] | 28 | 28 | – | – | – | 102 | –
CN(C)CCCOc1nn(Cc2ccccc2)c2ccccc12 [Compound C-4, 1-benzyl-3-(3-dimethylaminopropoxy)indazole, reference compound] | – | – | – | – | – | – | Inhibition (carrageenin edema), Table 2 ([1]; 25 mg/kg, oral): 8%; Inhibition (carrageenin edema), Table 2 ([1]; 50 mg/kg, oral): 20%; Inhibition (carrageenin edema), Table 2 ([1]; 100 mg/kg, oral): 51%; Effect against primary inflammation (primary inflammation): effective against primary inflammation
CCN(CC)CCCn1nc(NCCCN2CCCCC2)c2ccccc21 [Compound (34), 1-(3-diethylaminopropyl)-3-(3-piperidinopropylamino)indazole] | 28 | 28 | – | – | – | 172 | –
CCN(CC)CCCn1nc(NCCC(C)N2CCCCC2)c2ccccc21 (stereo not shown) [Compound (37), 1-(3-diethylaminopropyl)-3-(3-piperidinobutylamino)indazole] | 27 | – | – | – | – | 169 | –
